One assay deals with STK3 (Homo sapiens (Human), UniProt Q13188). Kind of assay: ADP-Glo kinase assay, STK3. It counts as biochemical. As to the method:
(§1) The STK3 kinase assay was performed in 5 μL reaction buffer containing 50 ng recombinant human STK3 protein (full length, SignalChem #S24-10G; Richmond, Canada), 250 μg/mL myelin basic protein (Sigma-Aldrich #M1891; St. Louis, MO, USA), and 50 μM ATP (Sigma-Aldrich #A7699). The STK4 kinase assay was performed in 5 μL reaction buffer containing 50 ng recombinant human STK4 protein (full length, SignalChem #S25-10G), 300 μg/mL Axltide (SignalChem #A16-58), and 50 μM ATP. […] Three experiments were performed, each in triplicate.

Another assay has as its target STK4 (Homo sapiens (Human), UniProt Q13043). Put plainly: ADP-Glo kinase assay, STK4. It counts as biochemical. Particulars: ADP-Glo, 50 μM ATP; read-out: STK4 IC50. As to the method: as §1
(In ADP-Glo the light output rises with the ADP produced.)

[1] abbreviates: ADP-Glo, 50 μM ATP, read-out: STK3 IC50.

Structures are written as SMILES. pIC50: −log10 of the molar value. Where two headings read alike, the source gives them in different places. Bounds are passed on as bounds.

Sequence of STK3 (Q13188 whole entry): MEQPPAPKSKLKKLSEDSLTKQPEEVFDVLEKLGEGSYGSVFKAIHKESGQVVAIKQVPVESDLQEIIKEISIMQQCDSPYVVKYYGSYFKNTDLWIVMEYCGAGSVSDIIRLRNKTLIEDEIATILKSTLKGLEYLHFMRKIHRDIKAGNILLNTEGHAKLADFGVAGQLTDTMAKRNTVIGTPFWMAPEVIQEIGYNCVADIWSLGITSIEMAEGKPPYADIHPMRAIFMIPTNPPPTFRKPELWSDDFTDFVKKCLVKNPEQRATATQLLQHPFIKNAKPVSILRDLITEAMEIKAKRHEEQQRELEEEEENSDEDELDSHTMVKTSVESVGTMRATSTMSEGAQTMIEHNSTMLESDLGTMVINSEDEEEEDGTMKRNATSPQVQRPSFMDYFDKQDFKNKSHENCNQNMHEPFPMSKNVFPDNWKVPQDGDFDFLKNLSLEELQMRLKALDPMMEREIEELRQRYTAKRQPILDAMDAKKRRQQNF
Sequence of STK4 (Q13043 whole entry): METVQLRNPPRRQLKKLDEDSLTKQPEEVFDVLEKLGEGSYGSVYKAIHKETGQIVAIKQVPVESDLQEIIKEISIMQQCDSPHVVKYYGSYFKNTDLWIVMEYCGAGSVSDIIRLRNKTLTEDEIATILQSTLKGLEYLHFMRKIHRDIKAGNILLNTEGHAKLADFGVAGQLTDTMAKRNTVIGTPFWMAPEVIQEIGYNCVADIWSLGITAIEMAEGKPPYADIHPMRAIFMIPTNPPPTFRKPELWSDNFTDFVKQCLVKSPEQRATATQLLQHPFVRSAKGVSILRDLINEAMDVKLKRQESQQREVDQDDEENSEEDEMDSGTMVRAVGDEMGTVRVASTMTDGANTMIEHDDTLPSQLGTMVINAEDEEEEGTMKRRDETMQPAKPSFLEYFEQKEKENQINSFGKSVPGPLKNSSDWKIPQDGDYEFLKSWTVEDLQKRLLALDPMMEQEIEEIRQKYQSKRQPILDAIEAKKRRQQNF

Consider `c1coc(-c2c[nH]c3ncnc(N4CCOCC4)c23)c1` [Compound 13, 4-(5-(Furan-2-yl)-7H-pyrrolo[2,3-d]pyrimidin-4-yl)morpholine], for which the pIC50 (as a rule, the IC50 on a negative log10 scale, so that one unit is a factor of ten) at STK3 (setting [1]) was > 6.00.

`Fc1ccccc1-c1c[nH]c2ncnc(N3CCOCC3)c12` [Compound 3, 4-(5-(2-Fluorophenyl)-7H-pyrrolo[2,3-d]pyrimidin-4-yl)morpholine]: the pIC50 at STK3 (setting [1]) was > 6.00.

In the case of `Cn1cc(-c2c[nH]c3ncnc(N4CCOCC4)c23)cn1` [Compound 41, 4-(5-(1-methyl-1H-pyrazol-4-yl)-7H-pyrrolo[2,3-d]pyrimidin-4-yl)morpholine], the pIC50 at STK3 (setting [1]) is 5.30 to 6.00; on STK4 it was > 6.00.

On to `Clc1cccc(-c2c[nH]c3ncnc(NCc4ccoc4)c23)c1` [Compound 62, 5-(3-chlorophenyl)-N-(furan-3-ylmethyl)-7H-pyrrolo[2,3-d]pyrimidin-4-amine], for which the pIC50 at STK3 (setting [1]) and at STK4 was > 6.00 throughout.

Consider `Clc1cccc(-c2c[nH]c3ncnc(N4CCCC4)c23)c1` [Compound 44, 5-(3-chlorophenyl)-4-(pyrrolidin-1-yl)-7H-pyrrolo[2,3-d]pyrimidine], for which the pIC50 on STK3 (setting [1]) and on STK4 was > 6.00 each time.

For the compound `Clc1cccc(-c2c[nH]c3ncnc(NCC4CC4)c23)c1` [Compound 18, 5-(3-Chlorophenyl)-N-(cyclopropylmethyl)-7H-pyrrolo[2,3-d]pyrimidin-4-amine], on STK3 (setting [1]), the pIC50 is > 6.00.

Regarding `COCCNc1ncnc2[nH]cc(-c3cccc(Cl)c3)c12` [Compound 58, 5-(3-chlorophenyl)-N-(2-methoxyethyl)-7H-pyrrolo[2,3-d]pyrimidin-4-amine], the pIC50 at STK3 (setting [1]) and on STK4 was < 5.30 throughout.

For the compound `Clc1cccc(-c2c[nH]c3ncnc(NCc4ccn[nH]4)c23)c1` [Compound 59, N-((1H-pyrazol-5-yl)methyl)-5-(3-chlorophenyl)-7H-pyrrolo[2,3-d]pyrimidin-4-amine], the pIC50 is 5.30 to 6.00 at STK3 (setting [1]) and > 6.00 on STK4.

`CC(CNc1ncnc2[nH]cc(-c3cccc(Cl)c3)c12)C(N)=O` (stereo not shown) [Compound 125, 3-((5-(3-chlorophenyl)-7H-pyrrolo[2,3-d]pyrimidin-4-yl)amino)-2-methylpropanamide]: the pIC50 on STK3 (setting [1]) and on STK4 was > 6.00 throughout.

Consider `O=C1CCN(c2ncnc3[nH]cc(-c4cccc(Cl)c4)c23)CC1` [Compound 118, 1-(5-(3-chlorophenyl)-7H-pyrrolo[2,3-d]pyrimidin-4-yl)piperidin-4-one], for which the pIC50 against STK3 is 5.30 to 6.00; on STK4 it was > 6.00.

For the compound `COc1ccc(CCNc2ncnc3[nH]cc(-c4cccc(Cl)c4)c23)cc1OC` [Compound 72, 5-(3-chlorophenyl)-N-(3,4-dimethoxyphenethyl)-7H-pyrrolo[2,3-d]pyrimidin-4-amine], the pIC50 on STK3 (setting [1]) is < 5.30; at STK4, 5.30 to 6.00.

Consider `CNCC(C)CNc1ncnc2[nH]cc(-c3cccc(Cl)c3)c12` (stereo not shown) [Compound 131, N^1-(5-(3-chlorophenyl)-7H-pyrrolo[2,3-d]pyrimidin-4-yl)-N^3,2-dimethylpropane-1,3-diamine], for which the pIC50 at STK3 (setting [1]) and at STK4 was < 5.30 in each case.

Take `Clc1ccc(-c2c[nH]c3ncnc(N4CCOCC4)c23)cc1` [Compound 25, 4-(5-(4-Chlorophenyl)-7H-pyrrolo[2,3-d]pyrimidin-4-yl)morpholine]: the figures for the pIC50 on STK3 (setting [1]) and at STK4 were > 6.00 and 5.30 to 6.00, respectively.

As to `CC(=O)N(C)CC(C)CN(C)c1ncnc2[nH]cc(-c3cccc(Cl)c3)c12` (stereo not shown) [Compound 128], the pIC50 at STK3 (setting [1]) was > 6.00; on STK4, 5.30 to 6.00.

As for `Clc1cccc(-c2coc3nccc(N4CCOCC4)c23)c1` [Compound 94, 3-(3-chlorophenyl)-4-morpholinofuro[2,3-b]pyridine], the pIC50 on STK3 (setting [1]) and on STK4 was < 5.30 each time.

Regarding `Cc1cnccc1-c1c[nH]c2ncnc(N3CCOCC3)c12` [Compound 37, 4-(5-(3-methylpyridin-4-yl)-7H-pyrrolo[2,3-d]pyrimidin-4-yl)morpholine], the pIC50 at STK3 (setting [1]) and on STK4 was < 5.30 in each case.

On to `CCN1CCCC1CNc1ncnc2[nH]cc(-c3cccc(Cl)c3)c12` (stereo not shown) [Compound 80, 5-(3-chlorophenyl)-N-((1-ethylpyrrolidin-2-yl)methyl)-7H-pyrrolo[2,3-d]pyrimidin-4-amine], for which the pIC50 at STK3 (setting [1]) and at STK4 was < 5.30 throughout.

For the compound `CC(CO)CNc1ncnc2[nH]cc(-c3cccc(Cl)c3)c12` (stereo not shown) [Compound 117, 3-((5-(3-chlorophenyl)-7H-pyrrolo[2,3-d]pyrimidin-4-yl)amino)-2-methylpropan-1-ol], the pIC50 on STK3 (setting [1]) and on STK4 was > 6.00 in each case.

In the case of `COCC(C)CN(C)c1ncnc2[nH]cc(-c3cccc(Cl)c3)c12` (stereo not shown) [Compound 122, 5-(3-chlorophenyl)-N-(3-methoxy-2-methylpropyl)-N-methyl-7H-pyrrolo[2,3-d]pyrimidin-4-amine], the negative-log IC50 (pIC50) on STK3 (setting [1]) and at STK4 was 5.30 to 6.00 throughout.

As for `CS(=O)(=O)c1cccc(-c2c[nH]c3ncnc(N4CCOCC4)c23)c1` [Compound 39, 4-(5-(3-(methylsulfonyl)phenyl)-7H-pyrrolo[2,3-d]pyrimidin-4-yl)morpholine], the pIC50 at STK3 (setting [1]) and at STK4 was < 5.30 each time.

`Clc1cccc(-c2c[nH]c3ncnc(NCC4CCCCCC4)c23)c1` [Compound 84, 5-(3-chlorophenyl)-N-(cycloheptylmethyl)-7H-pyrrolo[2,3-d]pyrimidin-4-amine]: the pIC50 on STK3 (setting [1]) and at STK4 was < 5.30 each time.

Regarding `FC(F)(F)Oc1ccc(-c2c[nH]c3ncnc(N4CCOCC4)c23)cc1` [Compound 28, 4-(5-(4-(trifluoromethoxy)phenyl)-7H-pyrrolo[2,3-d]pyrimidin-4-yl)morpholine], the pIC50 at STK3 (setting [1]) and on STK4 was 5.30 to 6.00 in each case.

Consider `CNS(=O)(=O)c1ccc(Nc2nc(N3CCOCC3)c3c(-c4cccc(Cl)c4)c[nH]c3n2)cc1` [Compound 98, 4-((5-(3-chlorophenyl)-4-morpholino-7H-pyrrolo[2,3-d]pyrimidin-2-yl)amino)-N-methylbenzenesulfonamide], for which the pIC50 at STK3 (setting [1]) and on STK4 was > 6.00 throughout.

In the case of `Clc1cccc(-c2c[nH]c3ncnc(NCCN4CCOCC4)c23)c1` [Compound 66, 5-(3-chlorophenyl)-N-(2-morpholinoethyl)-7H-pyrrolo[2,3-d]pyrimidin-4-amine], the pIC50 on STK3 (setting [1]) and on STK4 was 5.30 to 6.00 throughout.

With `CN1CCC(Nc2ncnc3[nH]cc(-c4cccc(Cl)c4)c23)CC1` [Compound 65, 5-(3-chlorophenyl)-N-(1-methylpiperidin-4-yl)-7H-pyrrolo[2,3-d]pyrimidin-4-amine], the negative logarithm of the IC50 (pIC50) on STK3 (setting [1]) and at STK4 was 5.30 to 6.00 throughout.

Regarding `CN(C)CCNc1ncnc2[nH]cc(-c3cccc(Cl)c3)c12` [Compound 57, N1-(5-(3-chlorophenyl)-7H-pyrrolo[2,3-d]pyrimidin-4-yl)-N2,N2-dimethylethane-1,2-diamine], the pIC50 on STK3 (setting [1]) and on STK4 was < 5.30 in each case.

In the case of `CCN(CCO)c1ncnc2[nH]cc(-c3cccc(Cl)c3)c12` [Compound 114, 2-((5-(3-chlorophenyl)-7H-pyrrolo[2,3-d]pyrimidin-4-yl)(ethyl)amino)ethan-1-ol], the pIC50 at STK3 (setting [1]) was > 6.00.

`COc1ccccc1-c1c[nH]c2ncnc(N3CCOCC3)c12` [Compound 4, 4-(5-(2-Methoxyphenyl)-7H-pyrrolo[2,3-d]pyrimidin-4-yl)morpholine]: the pIC50 on STK3 (setting [1]) is > 6.00.

For `COc1cccc(-c2c[nH]c3ncnc(N4CCOCC4)c23)c1` [Compound 8, 4-(5-(3-Methoxyphenyl)-7H-pyrrolo[2,3-d]pyrimidin-4-yl)morpholine], the pIC50 on STK3 (setting [1]) is > 6.00.

For `CC1(O)CCN(c2ncnc3[nH]cc(-c4cccc(Cl)c4)c23)CC1` [Compound 103, 1-(5-(3-chlorophenyl)-7H-pyrrolo[2,3-d]pyrimidin-4-yl)-4-methylpiperidin-4-ol], the pIC50 on STK3 (setting [1]) was > 6.00.

Turning to `c1nc(N2CCOCC2)c2c(-c3ccoc3)c[nH]c2n1` [Compound 14, 4-(5-(Furan-3-yl)-7H-pyrrolo[2,3-d]pyrimidin-4-yl)morpholine], at STK3 (setting [1]), the negative logarithm of the IC50 (pIC50) was > 6.00.

As to `Clc1cccc(-c2c[nH]c3ccnc(N4CCOCC4)c23)c1` [Compound 22, 4-(3-(3-Chlorophenyl)-1H-pyrrolo[3,2-c]pyridin-4-yl)morpholin], the pIC50 on STK3 (setting [1]) was < 5.30.

For the compound `Clc1cccc(-c2coc3ncnc(N4CCOCC4)c23)c1` [Compound 21, 5-(3-Chlorophenyl)-4-morpholinofuro[2,3-d]pyrimidine], the pIC50 on STK3 (setting [1]) was < 5.30.

As for `c1csc(-c2c[nH]c3ncnc(N4CCOCC4)c23)c1` [Compound 12, 4-(5-(Thiophen-2-yl)-7H-pyrrolo[2,3-d]pyrimidin-4-yl)morpholine], the pIC50 at STK3 (setting [1]) was > 6.00.

Regarding `Clc1cccc(-c2csc3ncnc(N4CCOCC4)c23)c1` [Compound 20, 4-(5-(3-Chlorophenyl)thieno[2,3-d]pyrimidin-4-yl)morpholine], at STK3 (setting [1]), the pIC50 is < 5.30.

Take `Fc1ccc(-c2c[nH]c3ncnc(N4CCOCC4)c23)cc1` [Compound 10, 4-(5-(4-Fluorophenyl)-7H-pyrrolo[2,3-d]pyrimidin-4-yl)morpholine]: the pIC50 at STK3 (setting [1]) is > 6.00.

On to `Cc1ccc(-c2c[nH]c3ncnc(N4CCOCC4)c23)cc1` [Compound 9, 4-(5-(p-tolyl)-7H-pyrrolo[2,3-d]pyrimidin-4-yl)morpholine], for which the pIC50 against STK3 is 5.30 to 6.00.

As to `CN(C)c1ncnc2[nH]cc(-c3cccc(Cl)c3)c12` [Compound 17, 5-(3-Chlorophenyl)-N,N-dimethyl-7H-pyrrolo[2,3-d]pyrimidin-4-amine], on STK3 (setting [1]), the pIC50 is > 6.00.

The record behind these values is patent US20250051337A1 (priority 2021, published 2025).
